Laboratory results published in ChEMBL document CHEMBL6087476, “Positive Charge-Concentrated Dimeric Lipopeptides with Enhanced Protease Resistance: A Potential Solution for Systemic Bacterial Infections” (J Med Chem, 2025).
Converted amounts (≈) assume the structure as drawn.

Legend:
Salmonella typhimurium [1] = test: Antimicrobial activity against Salmonella typhimurium 7731 assessed as increase in absorbance incubated for 20 to 22 hrs; type: functional, Salmonella enterica subsp. enterica serovar Typhimurium; details: Salmonella enterica, time 20-22 hrs
HEK-293T = test: Cytotoxicity against human HEK293T cells assessed as cell death measured after 18 to 24 hrs by MTT assay; type: functional; details: time 18-24 hrs
Staphylococcus aureus [2] = test: Antimicrobial activity against methicillin-resistant Staphylococcus aureus 43300 assessed as increase in absorbance incubated for 20 to 22 hrs; type: functional; details: time 20-22 hrs
Enterococcus faecalis = test: Antimicrobial activity against Enterococcus faecalis 29212 assessed as increase in absorbance incubated for 20 to 22 hrs; type: functional; details: time 20-22 hrs
[3] = Cytotoxicity against porcine IPEC-J2 cells assessed as cell death measured after 18 to 24 hrs by MTT assay; type: functional; details: Sus scrofa, time 18-24 hrs
[4] = Hemolytic activity in healthy human RBC assessed as hemolysis incubated for 1 hr by microplate reader; type: toxicity, cell-based; details: erythrocyte
Staphylococcus aureus [5] = test: Antimicrobial activity against Staphylococcus aureus 29213 assessed as increase in absorbance incubated for 20 to 22 hrs; type: functional; details: time 20-22 hrs
Escherichia coli [6] = test: Antimicrobial activity against Escherichia coli K99 assessed as increase in absorbance incubated for 20 to 22 hrs; type: functional; details: time 20-22 hrs
Staphylococcus aureus [7] = test: Antimicrobial activity against Staphylococcus aureus 25923 assessed as increase in absorbance incubated for 20 to 22 hrs; type: functional; details: time 20-22 hrs
Pseudomonas aeruginosa [8] = test: Antimicrobial activity against Pseudomonas aeruginosa 27853 assessed as increase in absorbance incubated for 20 to 22 hrs; type: functional; details: time 20-22 hrs
Salmonella typhimurium [9] = test: Antimicrobial activity against Salmonella typhimurium 14028 assessed as increase in absorbance incubated for 20 to 22 hrs; type: functional, Salmonella enterica subsp. enterica serovar Typhimurium; details: Salmonella enterica, time 20-22 hrs
Escherichia coli [10] = test: Antimicrobial activity against Escherichia coli ATCC 25922 assessed as increase in absorbance incubated for 20 to 22 hrs; type: functional; details: time 20-22 hrs
[11] = system: Staphylococcus epidermidis; test: Antimicrobial activity against Staphylococcus epidermidis 12228 assessed as increase in absorbance incubated for 20 to 22 hrs; type: functional; details: time 20-22 hrs
Escherichia coli [12] = test: Antimicrobial activity against Escherichia coli K88 assessed as increase in absorbance incubated for 20 to 22 hrs; type: functional; details: time 20-22 hrs
RAW264.7 = test: Cytotoxicity against mouse RAW264.7 cells assessed as cell death measured after 18 to 24 hrs by MTT assay; type: functional; details: time 18-24 hrs
Acinetobacter baumannii [13] = test: Antimicrobial activity against Acinetobacter baumannii AB1901 assessed as increase in absorbance incubated for 20 to 22 hrs; type: functional; details: time 20-22 hrs
Acinetobacter baumannii [14] = test: Antimicrobial activity against Acinetobacter baumannii AB1902 assessed as increase in absorbance incubated for 20 to 22 hrs; type: functional; details: time 20-22 hrs
Staphylococcus aureus [15] = test: Antimicrobial activity against Staphylococcus aureus 11011 assessed as increase in absorbance incubated for 20 to 22 hrs; type: functional; details: time 20-22 hrs
Pseudomonas aeruginosa [16] = test: Antimicrobial activity against Pseudomonas aeruginosa 25349 assessed as increase in absorbance incubated for 20 to 22 hrs; type: functional; details: time 20-22 hrs

Row | SMILES | MIC (Salmonella typhimurium [1]) | IC10 (HEK-293T) | MIC (Staphylococcus aureus [2]) | MIC (Enterococcus faecalis) | IC10 [3] | HC10 [4] | MIC (Staphylococcus aureus [5]) | MIC (Escherichia coli [6]) | MIC (Staphylococcus aureus [7]) | MIC (Pseudomonas aeruginosa [8]) | MIC (Salmonella typhimurium [9]) | MIC (Escherichia coli [10]) | MIC [11] | MIC (Escherichia coli [12]) | IC10 (RAW264.7) | MIC (Acinetobacter baumannii [13]) | MIC (Acinetobacter baumannii [14]) | MIC (Staphylococcus aureus [15]) | MIC (Pseudomonas aeruginosa [16])
1 | CCCCCCCCCCCC(=O)NCCCC[C@H](NC(=O)[C@@H](N)CSSC[C@H](N)C(=O)N[C@@H](CCCCNC(=O)CCCCCCCCCCC)C(=O)NCC(=O)NCC(=O)NCC(=O)N[C@H](CCCNC(=N)N)C(=O)N[C@@H](CCCNC(=N)N)C(=O)N[C@@H](CCCNC(=N)N)C(=O)N1CCC[C@H]1C(=O)O)C(=O)NCC(=O)NCC(=O)NCC(=O)N[C@H](CCCNC(=N)N)C(=O)N[C@@H](CCCNC(=N)N)C(=O)N[C@@H](CCCNC(=N)N)C(=O)N1CCC[C@H]1C(=O)O | 32 µM (≈ 74.7 µg/mL) | 128 µM | 18 µM (≈ 42 µg/mL) | 16 µM (≈ 37.4 µg/mL) | 128 µM | 128 µM | 16 µM (≈ 37.4 µg/mL) | 32 µM (≈ 74.7 µg/mL) | 32 µM (≈ 74.7 µg/mL) | 8 µM (≈ 18.7 µg/mL) | 16 µM (≈ 37.4 µg/mL) | 4 µM (≈ 9.34 µg/mL) | 16 µM (≈ 37.4 µg/mL) | 16 µM (≈ 37.4 µg/mL) | 128 µM | – | – | – | –
2 | CC1(C)S[C@@H]2[C@H](NC(=O)Cc3ccccc3)C(=O)N2[C@H]1C(=O)O [PENICILLIN G SODIUM] | – | – | – | – | – | – | – | – | – | – | – | – | – | – | – | 64 µM | > 64 µM | > 64 µM | > 64 µM
3 | CCCCCCCC(=O)NCCCC[C@H](N)C(=O)NCC(=O)NCC(=O)NCC(=O)N[C@H](CCCNC(=N)N)C(=O)N[C@@H](CCCNC(=N)N)C(=O)N[C@@H](CCCNC(=N)N)C(=O)N1CCC[C@H]1C(=O)N[C@@H](CS)C(=O)O | 32 µM (≈ 35.6 µg/mL) | 256 µM | 128 µM (≈ 142 µg/mL) | 128 µM (≈ 142 µg/mL) | 256 µM | 256 µM | 128 µM (≈ 142 µg/mL) | 32 µM (≈ 35.6 µg/mL) | 128 µM (≈ 142 µg/mL) | 8 µM (≈ 8.9 µg/mL) | 64 µM (≈ 71.2 µg/mL) | 32 µM (≈ 35.6 µg/mL) | 128 µM (≈ 142 µg/mL) | 32 µM (≈ 35.6 µg/mL) | 256 µM | – | – | – | –
4 | CCCCCCCCCCCC(=O)NCCCC[C@H](N)C(=O)NCC(=O)NCC(=O)NCC(=O)N[C@H](CCCNC(=N)N)C(=O)N[C@@H](CCCNC(=N)N)C(=O)N[C@@H](CCCNC(=N)N)C(=O)N1CCC[C@H]1C(=O)N[C@@H](CSSC[C@H](NC(=O)[C@@H]1CCCN1C(=O)[C@H](CCCNC(=N)N)NC(=O)[C@H](CCCNC(=N)N)NC(=O)[C@@H](CCCNC(=N)N)NC(=O)CNC(=O)CNC(=O)CNC(=O)[C@@H](N)CCCCNC(=O)CCCCCCCCCCC)C(=O)O)C(=O)O | 32 µM (≈ 74.7 µg/mL) | 128 µM | 32 µM (≈ 74.7 µg/mL) | 32 µM (≈ 74.7 µg/mL) | 32 µM | 64 µM | 32 µM (≈ 74.7 µg/mL) | 32 µM (≈ 74.7 µg/mL) | 32 µM (≈ 74.7 µg/mL) | 8 µM (≈ 18.7 µg/mL) | 32 µM (≈ 74.7 µg/mL) | 8 µM (≈ 18.7 µg/mL) | 32 µM (≈ 74.7 µg/mL) | 16 µM (≈ 37.4 µg/mL) | 64 µM | – | – | – | –
5 | CCCCCCCC(=O)NCCCC[C@H](NC(=O)[C@@H](N)CSSC[C@H](N)C(=O)N[C@@H](CCCCNC(=O)CCCCCCC)C(=O)NCC(=O)NCC(=O)NCC(=O)N[C@H](CCCNC(=N)N)C(=O)N[C@@H](CCCNC(=N)N)C(=O)N[C@@H](CCCNC(=N)N)C(=O)N1CCC[C@H]1C(=O)O)C(=O)NCC(=O)NCC(=O)NCC(=O)N[C@H](CCCNC(=N)N)C(=O)N[C@@H](CCCNC(=N)N)C(=O)N[C@@H](CCCNC(=N)N)C(=O)N1CCC[C@H]1C(=O)O | 16 µM (≈ 35.6 µg/mL) | 256 µM | 128 µM (≈ 285 µg/mL) | 128 µM (≈ 285 µg/mL) | 256 µM | 256 µM | 128 µM (≈ 285 µg/mL) | 8 µM (≈ 17.8 µg/mL) | 128 µM (≈ 285 µg/mL) | 16 µM (≈ 35.6 µg/mL) | 16 µM (≈ 35.6 µg/mL) | 8 µM (≈ 17.8 µg/mL) | 128 µM (≈ 285 µg/mL) | 8 µM (≈ 17.8 µg/mL) | 256 µM | – | – | – | –
6 | CC(C)(O/N=C(\C(=O)N[C@@H]1C(=O)N2C(C(=O)[O-])=C(C[n+]3ccccc3)CS[C@H]12)c1csc(N)n1)C(=O)O [CEFTAZIDIME] | – | – | – | – | – | – | – | – | – | – | – | – | – | – | – | 0.5 µM (≈ 0.273 µg/mL) | > 64 µM | > 64 µM | 0.5 µM (≈ 0.273 µg/mL)
7 | CCCCCCCC(=O)NCCCC[C@H](NC(=O)[C@@H](N)CS)C(=O)NCC(=O)NCC(=O)NCC(=O)N[C@H](CCCNC(=N)N)C(=O)N[C@@H](CCCNC(=N)N)C(=O)N[C@@H](CCCNC(=N)N)C(=O)N1CCC[C@H]1C(=O)O | 128 µM (≈ 142 µg/mL) | 256 µM | 128 µM (≈ 142 µg/mL) | 128 µM (≈ 142 µg/mL) | 256 µM | 256 µM | 128 µM (≈ 142 µg/mL) | 128 µM (≈ 142 µg/mL) | 128 µM (≈ 142 µg/mL) | 64 µM (≈ 71.2 µg/mL) | 128 µM (≈ 142 µg/mL) | 64 µM (≈ 71.2 µg/mL) | 128 µM (≈ 142 µg/mL) | 64 µM (≈ 71.2 µg/mL) | 256 µM | – | – | – | –
8 | CCCCCCCCCCCC(=O)NCCCC[C@H](NC(=O)[C@@H](N)CS)C(=O)NCC(=O)NCC(=O)NCC(=O)N[C@H](CCCNC(=N)N)C(=O)N[C@@H](CCCNC(=N)N)C(=O)N[C@@H](CCCNC(=N)N)C(=O)N1CCC[C@H]1C(=O)O | 64 µM (≈ 74.8 µg/mL) | 128 µM | 64 µM (≈ 74.8 µg/mL) | 64 µM (≈ 74.8 µg/mL) | 256 µM | 128 µM | 64 µM (≈ 74.8 µg/mL) | 64 µM (≈ 74.8 µg/mL) | 128 µM (≈ 150 µg/mL) | 32 µM (≈ 37.4 µg/mL) | 128 µM (≈ 150 µg/mL) | 32 µM (≈ 37.4 µg/mL) | 64 µM (≈ 74.8 µg/mL) | 32 µM (≈ 37.4 µg/mL) | 128 µM | – | – | – | –
